Experiments:
[1] = test system: Nitrososphaera viennensis; assay: Nitrification inhibition assay on Nitrososphaera viennensis (nitrite, Griess); type: cell-based, Nitrososphaera viennensis EN76T; details: 0% = as strong as 100 µM PTIO, 100% = no inhibition
Summary of the method: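 N. viennensis EN76T cultures in FWM (pH 7.5, NH4Cl-supplemented), 5× concentrated, treated with compounds at 2.5 µM final (0.25% DMSO) and incubated 24 h at 42 °C. Nitrite measured by Griess absorbance at 540 nm against a standard curve. Relative nitrification normalized between DMSO (no compound) and 100 µM PTIO controls.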

[2] = test system: Candidatus Nitrospira kreftii; assay: Nitrification inhibition in Candidatus Nitrospira kreftii; type: cell-based; details: concentration of 6.25 µM
Method: Candidatus Nitrospira kreftii is a high (90%) enrichment of novel comammox species. To quantify nitrification inhibition in Ca. Nitrospira kreftii, a homogenous sample was taken from the bioreactor, washed and resuspended in sterile NOB mineral salts medium supplemented with (per liter) 1 mL of a trace element stock solution composed of NTA (15 g/L), ZnSO4 · 7H2O (0.43 g/L), CoCl2 · 6H2O (0.24 g/L), MnCl2 · 4H2O (0.99 g/L), CuSO4 · 5H2O (0.25 g/L), Na2MoO4 · 2H2O (0.22 g/L), NiCl2 · 6H2O (0.19 g/L), NaSeO4·10H2O (0.021 g/L), […] (0.014 g/L), CeCl·6H2O (0.24 g/L) and 1 mL of an iron stock solution composed of NTA (10 g/L) and FeSO4 (5 g/L). The final ammonium concentration was 200 µM.
To increase the nitrification rate, the cell density was increased 5 times via centrifugation. For homogenous distribution of the flocs, Ca. Nitrospira kreftii was continuously stirred during distribution with a multichannel pipet in the 96-well plates. […]
Ammonium concentrations were measured fluorescently via a modified orthophatal-dialdehyde assay. Nitrite and nitrate concentrations were determined consecutively with a spectrophotometer (at 540 nm): for nitrite, after addition of 100 µL Griess reagent to 100 µL sample (10 min incubation at room temperature) and for nitrate, subsequent to secondary addition of 27 µL of a saturated VCl3 solution in HCl (30 min incubation at 60° C.).

[3] = test system: ABIL (ammonia-binding liquid inoculum), nitrifying microbial enrichment containing both AOA and AOB; assay: Nitrification inhibition assay on ABIL (ammonium consumption); type: cell-based; details: 0% = as strong as 100 µM PTIO, 100% = no inhibition

CC(C)c1cc(C(=O)N2CCSCC2)c2cnn(C(C)C)c2n1 [Example 2]
N. viennensis - relative nitrification (%) at 0.5 µM ([1]; 0.5 µM compound): 100% | N. viennensis - relative nitrification (%) at 5 µM ([1]; 5 µM compound): 75% | N. viennensis - relative nitrification (%) at 25 µM ([1]; 25 µM compound): 0% | inhibition at 6.25 µM [2]: 57.3% | ABIL - relative nitrification (%) at 2 µM ([3]; 2 µM compound): 66% | activity at 10 µM ([3]; 24 h, 10 µM compound, 24 h, read-out: ABIL - relative nitrification (%) at 10 µM): -31%
